Measurements from patent US10800792B2, “Inhibitors of Bruton's tyrosine kinase and method of their use” (JANSSEN PHARMACEUTICA NV, priority 2015, dated 2020).

What follows are compounds tested against unphosphorylated-BTK kinase domain (UP-BTK), GST-tagged human BTK (389-659aa) (Homo sapiens (Human), UniProt Q06187) (assay: BTK kinase Lanthascreen binding assay). Details: Lanthascreen tracer competition, 60 minutes incubation; pIC50 = negative log of the IC50 in molar.
Chain of unphosphorylated-BTK kinase domain (UP-BTK), GST-tagged human BTK (389-659aa) (Q06187 389-659): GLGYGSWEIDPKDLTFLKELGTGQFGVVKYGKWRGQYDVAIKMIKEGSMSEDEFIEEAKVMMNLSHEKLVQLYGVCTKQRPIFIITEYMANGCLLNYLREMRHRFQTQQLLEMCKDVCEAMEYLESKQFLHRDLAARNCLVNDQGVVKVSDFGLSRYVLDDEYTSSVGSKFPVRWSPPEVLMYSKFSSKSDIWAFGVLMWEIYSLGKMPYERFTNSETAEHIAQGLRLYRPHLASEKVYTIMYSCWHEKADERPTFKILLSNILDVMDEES
Summary of the method: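 Tracer-displacement binding assay against the non-phosphorylated enzyme, read by Lanthascreen. Reported: pIC50.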
In the case of `C=CC(=O)N1CC[C@@H](NC(=O)c2sc3nccc4c3c2NC(=O)N4c2cnc(Oc3ccccc3)nc2C)C1` (single isomer, unassigned) [Example 664, (R)—N-(1-Acryloylpyrrolidin-3-yl)-5-(*S)-(4-methyl-2-phenoxypyrimidin-5-yl)-4-oxo-4,5-dihydro-3H-1-thia-3,5,8-triazaacenaphthylene-2-carboxamide], the “BTK_I_binding pIC50” value is reported as 7.6. `Cc1cc(OC(C)C)ncc1N1C(=O)Nc2c(C(=O)N[C@@H]3CCCNC3)sc3nccc1c23` (single isomer, unassigned) [Example 794, (R)-5-(*S)-(6-Isopropoxy-4-methylpyridin-3-yl)-4-oxo-N-(piperidin-3-yl)-4,5-dihydro-3H-1-thia-3,5,8-triazaacenaphthylene-2-carboxamide] was tested, and the “BTK_I_binding pIC50” value was 6.5. In the case of `Cc1cc(Oc2ccccc2)ccc1N1C(=O)Nc2c(C(=O)N[C@@H]3CCN(C(=O)CC#N)C3)sc3nccc1c23` [Example 838, (R)—N-(1-(2-Cyanoacetyl)pyrrolidin-3-yl)-5-(2-methyl-4-phenoxyphenyl)-4-oxo-4,5-dihydro-3H-1-thia-3,5,8-triazaacenaphthylene-2-carboxamide], the “BTK_I_binding pIC50” value is reported as 7.9. For `C=CC(=O)N1CCC[C@@H](NC(=O)c2sc3nccc4c3c2NC(=O)N4c2cccc(-c3ccccc3)n2)C1` [Example 604, (R)—N-(1-Acryloylpiperidin-3-yl)-4-oxo-5-(6-phenylpyridin-2-yl)-4,5-dihydro-3H-1-thia-3,5,8-triazaacenaphthylene-2-carboxamide], the “BTK_I_binding pIC50” value was 6.3. In the case of `Cc1cc(Oc2ccccc2)ccc1N1C(=O)Nc2c(C(=O)N[C@@H]3CCCN(C(=O)[C@H]4CCN4)C3)sc3nccc1c23` [Example 849, N—((R)-1-((R)-Azetidine-2-carbonyl)piperidin-3-yl)-5-(2-methyl-4-phenoxyphenyl)-4-oxo-4,5-dihydro-3H-1-thia-3,5,8-triazaacenaphthylene-2-carboxamide], the “BTK_I_binding pIC50” value is reported as 7.6.

Same assay, conditions: Lanthascreen tracer competition, 60 minutes incubation; pIC50 = negative log of the IC50 in molar; read-out: BTK_I_binding pIC50 (converted)
`O=C(N[C@@H]1CCCNC1)c1sc2nccc3c2c1NC(=O)N3c1cc(-c2ccccc2)ncn1` [Example 723, (R)-4-Oxo-5-(6-phenylpyrimidin-4-yl)-N-(piperidin-3-yl)-4,5-dihydro-3H-1-thia-3,5,8-triazaacenaphthylene-2-carboxamide] showed an IC50 of 794 nM. Compound `Cc1cc(Oc2ccccc2)ccc1N1C(=O)Nc2c(C(=O)N[C@@H]3CCCN(C(=O)/C=C/CN4C[C@@H]5OCCO[C@@H]5C4)C3)sc3nccc1c23` (single isomer, unassigned) [Example 684, 5-(*S)-(2-Methyl-4-phenoxyphenyl)-4-oxo-N—((R)-1-((E)-4-((4aR,7aS)-tetrahydro-2H-[1,4]dioxino[2,3-c]pyrrol-6(3H)-yl)but-2-enoyl)piperidin-3-yl)-4,5-dihydro-3H-1-thia-3,5,8-triazaacenaphthylene-2-carboxamide] has an IC50 of 31.6 nM.

Same assay, conditions: pIC50 = negative log of the IC50 in molar; 60 minutes incubation, 50 nM Tracer 236
For `C=CC(=O)N1CC[C@@H](NC(=O)c2sc3nccc4c3c2NC(=O)N4c2c(C)cc(Oc3ccccc3)cc2C)C1` [Example 81, (R)—N-(1-Acryloylpyrrolidin-3-yl)-5-(2,6-dimethyl-4-phenoxyphenyl)-4-oxo-4,5-dihydro-3H-1-thia-3,5,8-triazaacenaphthylene-2-carboxamide], the “BTK_I_binding pIC50” value was 6.6. With `Cc1cc(Oc2ccccc2)ccc1N1C(=O)Nc2c(C(=O)N[C@@H]3CCN(C)C3)sc3nccc1c23` [Example 117, (R)-5-(2-Methyl-4-phenoxyphenyl)-N-(1-methylpyrrolidin-3-yl)-4-oxo-4,5-dihydro-3H-1-thia-3,5,8-triazaacenaphthylene-2-carboxamide] the “BTK_I_binding pIC50” value was 6.9. In the case of `C/C=C/C(=O)N1CCC[C@@H](NC(=O)c2sc3nccc4c3c2NC(=O)N4c2ccc(Oc3ccccc3)cc2C)C1` [Example 105, (R,E)-N-(1-(But-2-enoyl)piperidin-3-yl)-5-(2-methyl-4-phenoxyphenyl)-4-oxo-4,5-dihydro-3H-1-thia-3,5,8-triazaacenaphthylene-2-carboxamide], the “BTK_I_binding pIC50” value is reported as 6.9. With `Cc1cc(Oc2ccccc2)ccc1N1C(=O)Nc2c(C(=O)N[C@H]3CNC[C@@H](O)C3)sc3nccc1c23` [Example 197, N-((3R,5S)-5-Hydroxypiperidin-3-yl)-5-(2-methyl-4-phenoxyphenyl)-4-oxo-4,5-dihydro-3H-1-thia-3,5,8-triazaacenaphthylene-2-carboxamide] the “BTK_I_binding pIC50” value was 6.8. `CCOc1ccccc1Oc1ccc(N2C(=O)Nc3c(C(=O)N[C@@H]4CCCN(C)C4)sc4nccc2c34)c(C)c1` [Example 157, (R)-5-(4-(2-Ethoxyphenoxy)-2-methylphenyl)-N-(1-methylpiperidin-3-yl)-4-oxo-4,5-dihydro-3H-1-thia-3,5,8-triazaacenaphthylene-2-carboxamide] was tested, and the “BTK_I_binding pIC50” value was 6.6. In the case of `C=CC(=O)N1CCC[C@@H](NC(=O)c2sc3nccc4c3c2NC(=O)N4c2ccc(Oc3ccccc3)cc2Cl)C1` [Example 15, (R)—N-(1-Acryloylpiperidin-3-yl)-5-(2-chloro-4-phenoxyphenyl)-4-oxo-4,5-dihydro-3H-1-thia-3,5,8-triazaacenaphthylene-2-carboxamide], the “BTK_I_binding pIC50” value is reported as 7.6.

Same assay, conditions: pIC50 = negative log of the IC50 in molar; 60 minutes incubation, 50 nM Tracer 236; read-out: BTK_I_binding pIC50 (converted)
`C=CC(=O)N1CC[C@@H](NC(=O)c2sc3nccc4c3c2NC(=O)N4c2ccc(Oc3ccccc3)c(F)c2C)C1` [Example 7, (R)—N-(1-Acryloylpyrrolidin-3-yl)-5-(3-fluoro-2-methyl-4-phenoxyphenyl)-4-oxo-4,5-dihydro-3H-1-thia-3,5,8-triazaacenaphthylene-2-carboxamide] was tested, and the IC50 was 12.6 nM.

Same assay, conditions: unphosphorylated-BTK kinase domain, 50 nM Tracer 236, 60 minutes; pIC50 = negative log of the IC50 in molar
For `C=CC(=O)N1CCC[C@@H](NC(=O)c2sc3nccc4c3c2NC(=O)N4c2cccc(Cl)c2)C1` [Example 294, (R)—N-(1-Acryloylpiperidin-3-yl)-5-(3-chlorophenyl)-4-oxo-4,5-dihydro-3H-1-thia-3,5,8-triazaacenaphthylene-2-carboxamide], the “BTK_I_binding pIC50” value was 6.1. `O=C(N[C@@H]1CCCN(C(=O)n2ccnc2)C1)c1sc2nccc3c2c1NC(=O)N3c1ccc2c(c1)OC(F)(F)O2` [Example 454, (R)—N-(1-(1H-Imidazole-1-carbonyl)piperidin-3-yl)-5-(2,2-difluorobenzo[d][1.3]dioxol-5-yl)-4-oxo-4,5-dihydro-3H-1-thia-3,5,8-triazaacenaphthylene-2-carboxamide] was tested, and the “BTK_I_binding pIC50” value was <5. In the case of `CCOc1ccc(N2C(=O)Nc3c(C(=O)N[C@@H]4CCCN(C)C4)sc4nccc2c34)c(C)c1` [Example 333, (R)-5-(4-Ethoxy-2-methylphenyl)-N-(1-methylpiperidin-3-yl)-4-oxo-4,5-dihydro-3H-1-thia-3,5,8-triazaacenaphthylene-2-carboxamide], the “BTK_I_binding pIC50” value is reported as 5.5. With `C=CS(=O)(=O)N1CCC[C@@H](NC(=O)c2sc3nccc4c3c2NC(=O)N4c2ccc(Oc3ccccc3)cc2C)C1` [Example 372, (R)-5-(2-Methyl-4-phenoxyphenyl)-4-oxo-N-(1-(vinylsulfonyl)piperidin-3-yl)-4,5-dihydro-3H-1-thia-3,5,8-triazaacenaphthylene-2-carboxamide] the “BTK_I_binding pIC50” value was 7.6. In the case of `O=C(N[C@@H]1CCCNC1)c1sc2nccc3c2c1NC(=O)N3c1ccccc1` [Example 348, (R)-4-Oxo-5-phenyl-N-(piperidin-3-yl)-4,5-dihydro-3H-1-thia-3,5,8-triazaacenaphthylene-2-carboxamide], the “BTK_I_binding pIC50” value is reported as <5. In the case of `O=C(N[C@@H]1CCCNC1)c1sc2nccc3c2c1NC(=O)N3c1ccc(Oc2ccccc2)c(Cl)c1` [Example 581, (R)-5-(3-Chloro-4-phenoxyphenyl)-4-oxo-N-(piperidin-3-yl)-4,5-dihydro-3H-1-thia-3,5,8-triazaacenaphthylene-2-carboxamide], the “BTK_I_binding pIC50” value is reported as 6.8. With `CNC/C=C(\F)C(=O)N1CCC[C@@H](NC(=O)c2sc3nccc4c3c2NC(=O)N4c2ccc(Oc3ccccc3)cc2C)C1` [Example 388, (R,Z)—N-(1-(2-Fluoro-4-(methylamino)but-2-enoyl)piperidin-3-yl)-5-(2-methyl-4-phenoxyphenyl)-4-oxo-4,5-dihydro-3H-1-thia-3,5,8-triazaacenaphthylene-2-carboxamide] the “BTK_I_binding pIC50” value was 7.1. In the case of `C=CC(=O)N1CCC[C@@H](NC(=O)c2sc3nccc4c3c2NC(=O)N4c2cccc(-c3ccccc3C)c2)C1` [Example 504, (R)—N-(1-Acryloylpiperidin-3-yl)-5-(2′-methyl-[1,1′-biphenyl]-3-yl)-4-oxo-4,5-dihydro-3H-1-thia-3,5,8-triazaacenaphthylene-2-carboxamide], the “BTK_I_binding pIC50” value is reported as 8.0. With `C=CC(=O)N1CCC[C@@H](NC(=O)c2sc3nccc4c3c2NC(=O)N4c2ccc(Cc3ccccc3)cc2)C1` [Example 422, (R)—N-(1-Acryloylpiperidin-3-yl)-5-(4-benzylphenyl)-4-oxo-4,5-dihydro-3H-1-thia-3,5,8-triazaacenaphthylene-2-carboxamide] the “BTK_I_binding pIC50” value was 7.5.

Same assay, conditions: unphosphorylated-BTK kinase domain, 50 nM Tracer 236, 60 minutes; pIC50 = negative log of the IC50 in molar; read-out: BTK_I_binding pIC50 (converted)
`O=C(N[C@@H]1CCCNC1)c1sc2nccc3c2c1NC(=O)N3c1ccc(OC(F)(F)F)cc1` [Example 415, (R)-4-Oxo-N-(piperidin-3-yl)-5-(4-(trifluoromethoxy)phenyl)-4,5-dihydro-3H-1-thia-3,5,8-triazaacenaphthylene-2-carboxamide] gave an IC50 of 6310 nM.

Same assay, conditions: unphosphorylated-BTK kinase domain, 60 minutes incubation, 50 nM Tracer 236; pIC50 = negative log of the IC50 in molar
In the case of `CCC(=O)N1CCCC(NC(=O)c2sc3nccc4c3c2NC(=O)N4c2ccc(Oc3ccccc3)cc2C)C1` (stereo not shown) [Example 903, 5-(2-Methyl-4-phenoxyphenyl)-4-oxo-N-(1-propionylpiperidin-3-yl)-4,5-dihydro-3H-1-thia-3,5,8-triazaacenaphthylene-2-carboxamide], the “BTK_I_binding pIC50” value is reported as 6.8.
